The values below come from patent US4512986A, “Progrestationally active steroids” (priority 1983, dated 1985).

Test [1] addresses T1, Cytosol Progesterone Receptor of the Estrogen-primed Immature Rabbit Uterus (Oryctolagus cuniculus, UniProt P06186).
T1 construct: cytosol progesterone receptor of the estrogen-primed immature rabbit uterus; tissue Dutchland Laboratories, Inc., Denver, Pa (animals); host or cells: uterus cytosol of estradiol-treated immature female New Zealand White rabbits
T1 sequence (P06186 1-930): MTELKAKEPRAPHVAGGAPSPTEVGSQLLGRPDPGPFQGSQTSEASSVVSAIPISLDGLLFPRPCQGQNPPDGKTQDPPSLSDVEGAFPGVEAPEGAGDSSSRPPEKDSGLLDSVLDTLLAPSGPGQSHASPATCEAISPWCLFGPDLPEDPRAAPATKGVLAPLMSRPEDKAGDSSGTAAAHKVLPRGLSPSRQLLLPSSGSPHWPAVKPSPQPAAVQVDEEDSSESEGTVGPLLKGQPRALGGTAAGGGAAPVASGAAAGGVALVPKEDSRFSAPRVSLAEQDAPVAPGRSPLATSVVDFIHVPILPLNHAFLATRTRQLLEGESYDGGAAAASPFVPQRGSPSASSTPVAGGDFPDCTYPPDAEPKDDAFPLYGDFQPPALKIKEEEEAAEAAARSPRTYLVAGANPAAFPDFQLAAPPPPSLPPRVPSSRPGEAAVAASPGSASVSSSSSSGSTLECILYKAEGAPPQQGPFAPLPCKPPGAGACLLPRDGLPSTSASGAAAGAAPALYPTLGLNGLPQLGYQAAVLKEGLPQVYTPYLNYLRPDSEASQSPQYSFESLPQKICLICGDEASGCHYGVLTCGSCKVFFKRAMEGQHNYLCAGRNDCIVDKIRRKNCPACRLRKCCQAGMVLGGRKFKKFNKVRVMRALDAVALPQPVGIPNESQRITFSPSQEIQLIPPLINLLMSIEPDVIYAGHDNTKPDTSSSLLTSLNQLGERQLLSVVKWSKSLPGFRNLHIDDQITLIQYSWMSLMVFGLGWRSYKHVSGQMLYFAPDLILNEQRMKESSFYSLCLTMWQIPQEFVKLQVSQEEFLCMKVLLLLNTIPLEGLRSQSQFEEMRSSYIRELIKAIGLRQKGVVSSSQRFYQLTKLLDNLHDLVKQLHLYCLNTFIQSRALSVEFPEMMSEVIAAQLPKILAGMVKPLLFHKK
To be noted: relative to progesterone = 100; literature; cited from earlier work.

Test [2] deals with T1, Cytosol Progesterone Receptor of the Estrogen-primed Immature Rabbit Uterus. Put plainly: Relative binding affinity for progesterone receptor (competition with 3H-progesterone). Set-up: species or system rabbit (New Zealand White). The conditions noted are these: 16-18 hour incubation, progesterone = 100.
Test [3] relates to estrogen-primed immature rabbits. The conditions noted are these: cited from earlier work.
For test [4], the system named is uterine endometrium of estrone-primed immature rabbits. Nature of the test: Clauberg assay (progestational activity, McPhail). The format is in vivo, rabbit (New Zealand White). To be noted: oral; for McPhail Index (0-4) (X ± S.D.): 0 none, 4 maximal.
For test [5], the system named is endometrium of estrogen-primed ovariectomized or climacteric women. The conditions noted are these: oral; cited from earlier work.
For test [6] the following is noted: general knowledge; cited from earlier work.
Where [7] appears, read: 100 μg/rabbit daily, listed as 6α-Methyl-17α-acetoxyprogesterone.

Like-named read-outs stand apart in the source and are kept apart here.

`CC(=O)[C@H]1CC[C@H]2[C@@H]3CCC4=CC(=O)CC[C@@H]4[C@H]3CC[C@]12C` [19-norprogesterone]: in test [1], the “RBA (Kontula et al. 1975)” value is recorded as 258.
In the case of `CC(=O)O[C@]1(C(C)=O)CC[C@H]2[C@@H]3C[C@H](C)C4=CC(=O)CC[C@]4(C)[C@H]3CC[C@@]21C` [Medroxyprogesterone Acetate, 6α-Methyl-17α-acetoxyprogesterone, reference compound], the RBA in test [2] (Assay 4) came out at 57%; in test [2] (Assay 5), 133%; in test [2] (Assay 6) it was 143%. Further, the “Threshold or effective dose, Clauberg Assay” value in test [3] (oral) and in test [3] (s.c. (i.m.)) was 0.01-0.03 mg/animal each time. The “Uterine Weight (X ± S.D.)” value in test [4] (5 μg/rabbit daily) is listed as 1.08 ± 0.01 g; in test [4] (10 μg/rabbit daily) it was 1.35 ± 0.34 g; in test [4] (25 μg/rabbit daily) it was 1.12 ± 0.19 g; in test [4] (50 μg/rabbit daily), 2.82 ± 0.92 g; in test [4] (100 μg/rabbit daily) it was 2.65 ± 0.35 g; in test [4] (setting [7]) it was 2.11 ± 1.28 g. For the same compound, the “Uterine Weight (X ± S.D.)” value in test [4] (200 μg/rabbit daily) was 3.30 ± 0.41 g; in test [4] (400 μg/rabbit daily), 3.73 ± 0.61 g. Further, the “McPhail Index (0-4) (X ± S.D.)” value is 0.29 ± 0.06 in test [4] (5 μg/rabbit daily); 0.71 ± 0.06 in test [4] (10 μg/rabbit daily); 0.25 ± 0.10 in test [4] (25 μg/rabbit daily); 3.00 ± 0.83 in test [4] (50 μg/rabbit daily); 3.90 ± 0.13 in test [4] (100 μg/rabbit daily); 2.66 ± 1.10 in test [4] (setting [7]). Moreover, the “McPhail Index (0-4) (X ± S.D.)” value in test [4] (200 μg/rabbit daily) and in test [4] (400 μg/rabbit daily) was 4.00 ± 0.00 each time. Besides, the “Threshold or effective dose, Kaufman Assay” value in test [5] is listed as 40-70 mg/cycle. The “oral progestational activity, in words” value in test [6] was “potent orally active progestational compounds”.
